For one compound, IC50 and inhibition results are on record in patent US20130072404A1, “APPARATUS AND PROCESSES FOR GENERATING VARIABLE CONCENTRATION OF SOLUTES IN MICRODROPLETS” (UNIVERSITE DE STRASBOURG, priority 2009, published 2013).

Read-outs that look alike come from different tables or passages of the source.

The target in experiment [1] is T1, β-galactosidase (Escherichia coli, UniProt P00722). Kind of experiment: Microplate dose-response assay, β-galactosidase (Example 2). It counts as biochemical. Details: purchased Sigma-Aldrich Co. The conditions noted are these: 8-point microplate assay, n=10; read-out: IC50 obtained in microplate. The procedure:
For β-galactosidase, a solution of the inhibitor PETG was diluted to 200 μM in PBS and then further diluted in 3-fold serial dilution steps seven times (200 μM down to […]). 10 μl aliquots of each dilution were pipetted into the wells of a black, opaque 384-well plate (Corning, Inc., New York, USA). A stock of the substrate FDG was diluted to 240 μM in PBS and 10 μl aliquots were added to the wells. The reactions were initiated by adding 20 μl of 10 U/ml β-galactosidase, in PBS containing 2 g/l BSA, to each well. A SpectraMax M5 microplate reader (Molecular Devices, Inc., California, USA) was used to monitor the reactions at 25° C. with an excitation wavelength of 490 nm, an emission wavelength of 514 nm (automatic cut-off), and a 15 second period between measurements. The initial rate of each reaction was determined and the percentage inhibition of β-galactosidase activity was calculated by scaling this initial rate between a blank (no enzyme, equivalent to 100% inhibition) and a positive control (no inhibitor, equivalent to 0% inhibition) in the same manner as Eq. 1 (see above). When required, the 4-parameter Hill function was fitted to a plot of percentage inhibition against logged inhibitor concentration to determine the IC50 of PETG.
Target sequence in this assay (P00722 2-1024 limits assumed): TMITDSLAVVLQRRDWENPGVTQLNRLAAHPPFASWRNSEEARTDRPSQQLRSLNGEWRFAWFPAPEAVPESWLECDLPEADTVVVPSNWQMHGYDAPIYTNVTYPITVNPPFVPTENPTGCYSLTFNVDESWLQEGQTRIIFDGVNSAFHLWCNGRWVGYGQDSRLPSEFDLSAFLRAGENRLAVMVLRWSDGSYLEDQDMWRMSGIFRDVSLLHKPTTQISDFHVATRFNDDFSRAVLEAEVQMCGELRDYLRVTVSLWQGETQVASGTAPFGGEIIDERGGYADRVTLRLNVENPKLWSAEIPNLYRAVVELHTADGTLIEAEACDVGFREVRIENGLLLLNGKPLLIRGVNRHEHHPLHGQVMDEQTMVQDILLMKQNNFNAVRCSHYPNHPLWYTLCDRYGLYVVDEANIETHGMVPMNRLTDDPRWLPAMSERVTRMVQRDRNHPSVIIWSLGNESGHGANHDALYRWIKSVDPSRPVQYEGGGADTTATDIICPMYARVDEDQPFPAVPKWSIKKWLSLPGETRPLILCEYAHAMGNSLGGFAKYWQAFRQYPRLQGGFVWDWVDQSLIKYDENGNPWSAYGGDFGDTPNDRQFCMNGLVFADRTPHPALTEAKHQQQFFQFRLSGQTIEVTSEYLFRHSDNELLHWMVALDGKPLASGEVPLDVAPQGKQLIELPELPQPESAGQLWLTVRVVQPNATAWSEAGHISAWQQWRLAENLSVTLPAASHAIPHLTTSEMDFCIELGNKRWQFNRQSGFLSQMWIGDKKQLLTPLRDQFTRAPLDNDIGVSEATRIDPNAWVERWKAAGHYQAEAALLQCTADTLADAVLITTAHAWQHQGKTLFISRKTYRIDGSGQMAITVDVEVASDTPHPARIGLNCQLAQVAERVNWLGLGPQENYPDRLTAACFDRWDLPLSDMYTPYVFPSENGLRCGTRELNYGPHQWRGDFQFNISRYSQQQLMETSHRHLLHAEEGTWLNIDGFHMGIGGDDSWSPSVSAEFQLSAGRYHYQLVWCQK

In experiment [2] the target is T1, β-galactosidase. Briefly: High-resolution dose-response screening of β-galactosidase inhibition in droplets (Example 2), FDG substrate. The conditions noted are these: for IC50: 4-parameter Hill fit. Further details: purchased Grade VIII. Type of experiment: biochemical, E. coli. The procedure: PBS was pumped through the autosampler at a rate of 200 μl/hour. On-chip, this flow was combined with solutions of enzyme and substrate, both flowing at 100 μl/hour. The enzyme solution was 20 U/ml of E. coli Grade VIII β-galactosidase in PBS containing 4 g/l BSA. The substrate solution was 240 μM FDG and 400 nM sodium fluorescein in PBS. The combined aqueous flow was segmented into droplets by the oil/surfactant solution flowing at a rate of 400 μl/hour. The optical setup was positioned just before the delay line and individual droplets were discriminated by green fluorescence. The measurement at this point provided a “pseudo blank” (no enzyme activity, equivalent to 100% inhibition) for the inhibition calculations later on: droplets with zero activity were not observed to change fluorescence between production and any measurement point in the delay line (FIG. 17).
The optical setup was repositioned to the 30-second measurement point and the droplets were analyzed continuously. Meanwhile, the autosampler was used to load 1 μl from each well of a 96-well plate into the PBS stream running through the dispersion capillary. Each well contained 20 μl of 100 μM DY-682 in PBS, plus one of four different concentrations of the inhibitor 2-phenylethyl β-D-thiogalactoside (PETG; Invitrogen Corp., California, USA): 600 μM (“high”), 120 μM (“medium”), 24 μM (“low”), or zero. As each Gaussian-like pulse of DY-682 and PETG, mixed with the reaction components and segmented into droplets, arrived at the optical detector, a dose-response profile was recorded.
Offline, a Python script was used to group the droplets in the front edge of each Gaussian-like pulse by injection (˜10,000 droplets); these droplets are referred to as the injection's “dose-response droplets”. 1 second's worth of droplets directly preceding each Gaussian-like pulse were also stored (˜800 droplets). The mean green fluorescence of these droplets provided the “control” value (0% inhibition) for the injection and this value was used with the pseudo blank value (corresponding to 100% inhibition) to calculate the percentage inhibition in the subsequent dose-response droplets. […] The corrected green signal was then used to calculate the proportion of inhibition (I) in each droplet using the following equation: […]
where M is corrected measured fluorescence, B is the pseudo blank value, and C is the control value. In parallel, the NIR fluorescence signal for each droplet was used to calculate the concentration of co-injected compound. […]
For each of the 16 “medium” injections the quality of the assay was determined by calculating the Z-factor (Zhang et al., 1999).
Target sequence in this assay (P00722 2-1024): as the sequence (P00722 2-1024 limits assumed) above

Experiment [3] concerns the target T1, β-galactosidase. Briefly: Standard microplate assay (Example 1 comparison values). It counts as biochemical. Details: purchased Sigma-Aldrich Co. Particulars: read-out: IC50 of PETG measured in a standard microplate assay.
Target sequence in this assay (P00722 2-1024 limits assumed): as above
In experiment [4] the target is T1, β-galactosidase. Details: purchased Sigma-Aldrich Co. Particulars: Angenendt et al., 2004; read-out: IC50 literature value; cited from earlier work.
Target sequence in this assay (P00722 2-1024 limits assumed): as above

As for `OC[C@H]1O[C@@H](SCCc2ccccc2)[C@H](O)[C@@H](O)[C@H]1O` [PETG, phenylethyl β-D-thiogalactopyranoside], the IC50 (as a rule, the concentration at which inhibition is half-maximal) is 2720 nM at β-galactosidase [1]; 1980 nM against β-galactosidase [2] (mean IC50, high (600 μM) injected PETG); 1980 nM against β-galactosidase [2] (mean IC50, low (24 μM) injected PETG); 2060 nM at β-galactosidase [2] (mean IC50, medium (120 μM) injected PETG, n=16); 1430 nM at β-galactosidase [3]; 3100 nM on β-galactosidase [4]. The inhibition (usually the change of the read-out against control, counted positive when it falls) on β-galactosidase [2] (droplets containing 50 μM PETG) stood at 97.5%.
